Calls of active or inactive are those of the source. No cut-off for these calls is given here.
Columns and labels:
[1] = Inhibition of MAOB in baboon liver mitochondria assessed as MMDP+ production by spectrophotometry; set-up: species or system Papio hamadryas
[2] = molecular target: T1, Amine oxidase [flavin-containing] A (Homo sapiens, UniProt P21397); assay: Inhibition of human recombinant MAOA assessed as 4-hydroxyquinoline formation by fluorimetry
T1 sequence (P21397 whole entry): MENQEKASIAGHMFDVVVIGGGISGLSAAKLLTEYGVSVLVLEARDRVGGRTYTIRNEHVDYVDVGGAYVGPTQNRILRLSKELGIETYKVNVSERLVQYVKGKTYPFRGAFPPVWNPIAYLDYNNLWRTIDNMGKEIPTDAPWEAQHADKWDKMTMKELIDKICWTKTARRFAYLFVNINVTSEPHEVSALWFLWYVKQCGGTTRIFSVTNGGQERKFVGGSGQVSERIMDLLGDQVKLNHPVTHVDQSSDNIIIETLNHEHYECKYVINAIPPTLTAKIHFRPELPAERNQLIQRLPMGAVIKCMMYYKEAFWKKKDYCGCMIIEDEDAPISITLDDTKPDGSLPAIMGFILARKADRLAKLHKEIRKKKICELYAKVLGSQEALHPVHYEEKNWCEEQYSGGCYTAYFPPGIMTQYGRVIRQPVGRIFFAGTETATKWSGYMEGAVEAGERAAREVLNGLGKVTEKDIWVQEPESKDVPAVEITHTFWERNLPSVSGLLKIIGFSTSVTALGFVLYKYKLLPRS

[3] = molecular target: T2, Amine oxidase [flavin-containing] B (Homo sapiens, UniProt P27338); assay: Inhibition of human recombinant MAOB assessed as 4-hydroxyquinoline formation by fluorimetry
T2 sequence (P27338 whole entry): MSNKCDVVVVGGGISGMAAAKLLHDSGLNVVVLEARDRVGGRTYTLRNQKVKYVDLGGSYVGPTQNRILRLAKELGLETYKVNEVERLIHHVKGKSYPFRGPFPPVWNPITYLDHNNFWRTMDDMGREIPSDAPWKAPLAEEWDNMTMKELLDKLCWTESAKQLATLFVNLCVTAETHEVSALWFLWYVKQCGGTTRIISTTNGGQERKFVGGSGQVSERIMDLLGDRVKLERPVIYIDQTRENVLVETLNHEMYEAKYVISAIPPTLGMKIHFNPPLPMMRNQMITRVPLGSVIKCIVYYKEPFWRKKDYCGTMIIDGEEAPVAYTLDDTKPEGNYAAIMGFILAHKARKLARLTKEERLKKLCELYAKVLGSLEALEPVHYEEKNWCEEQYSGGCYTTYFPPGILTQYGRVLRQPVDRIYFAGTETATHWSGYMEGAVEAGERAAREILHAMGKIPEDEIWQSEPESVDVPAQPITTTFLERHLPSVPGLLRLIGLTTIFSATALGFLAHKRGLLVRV

Homo sapiens = organism: Homo sapiens; assay: Selectivity for human recombinant MAOA over human recombinant MAOB
[4] = molecular target: T2, Amine oxidase [flavin-containing] B; assay: Competitive inhibition of human recombinant MAOB by Lineweaver-Burke plot
Papio hamadryas [5] = organism: Papio hamadryas; assay: Competitive inhibition of MAOB in baboon liver mitochondria by Lineweaver-Burke plot
[6] = molecular target: T1, Amine oxidase [flavin-containing] A; assay: Reversible inhibition of human recombinant MAOA assessed as 4-hydroxyquinoline formation by fluorimetry
[7] = molecular target: T1, Amine oxidase [flavin-containing] A; assay: Competitive inhibition of human recombinant MAOA by Lineweaver-Burke plot
Papio hamadryas [8] = organism: Papio hamadryas; assay: Reversible inhibition of MAOB in baboon liver mitochondria at 0.28 uM assessed as MMDP+ production by spectrophotometry
[9] = molecular target: T2, Amine oxidase [flavin-containing] B; assay: Reversible inhibition of human recombinant MAOB at 0.23 uM assessed as 4-hydroxyquinoline formation by fluorimetry
[10] = molecular target: T1, Amine oxidase [flavin-containing] A; assay: Reversible inhibition of human recombinant MAOA at 1.31 uM assessed as 4-hydroxyquinoline formation by fluorimetry

Row | Structure (SMILES) | IC50 [1] [nM] | Ki [1] [nM] | IC50 [2] [nM] | Ki [2] [nM] | IC50 [3] [nM] | Ki [3] [nM] | Ratio Ki (Homo sapiens) | inhibition (INH) [4] | inhibition (Papio hamadryas [5]) | inhibition (INH) [6] | inhibition (INH) [7] | inhibition (Papio hamadryas [8]) | inhibition (INH) [9] | inhibition (INH) [10]
1 | Cn1c(=O)c2c(nc(OCc3ccccc3)n2C)n(C)c1=O | 2490 | 1440 | 1770 | 590 | 1240 | 430 | 1.37 | – | – | – | – | – | – | –
2 | Cn1c(=O)c2c(nc(OCc3cccc(C(F)(F)F)c3)n2C)n(C)c1=O | 112 | 65 | 152 | 51 | 3720 | 1300 | 0.039 | Active | Active | Active | Active | – | – | –
3 | Cn1c(=O)c2c(nc(OCc3cccc(F)c3)n2C)n(C)c1=O | 534 | 310 | 542 | 180 | 1070 | 370 | 0.49 | – | – | – | – | – | – | –
4 | Cc1cccc(COc2nc3c(c(=O)n(C)c(=O)n3C)n2C)c1 | 698 | 400 | 546 | 180 | 397 | 140 | 1.29 | – | – | – | – | – | – | –
5 | Cn1c(=O)c2c(nc(OCc3cccc(Cl)c3)n2C)n(C)c1=O | 120 | 69 | 107 | 36 | 666 | 230 | 0.16 | – | – | – | – | Active | Active | Active
6 | Cn1c(=O)c2c(nc(OCc3cccc(Br)c3)n2C)n(C)c1=O | 113 | 65 | 68 | 23 | 941 | 330 | 0.069 | – | – | – | – | – | – | –
7 | COc1cccc(COc2nc3c(c(=O)n(C)c(=O)n3C)n2C)c1 | 1590 | 920 | 1010 | 340 | 3150 | 1100 | 0.31 | – | – | – | – | – | – | –

Source: ChEMBL document CHEMBL1156881, “Inhibition of monoamine oxidase by 8-benzyloxycaffeine analogues” (Bioorg Med Chem, 2010)
